{"source": "the supplement of paper PMC10307832", "test_in_all_cases": "relative viability (nuclei count vs DMSO), 5 days (fraction); higher = more cells survive", "key": {"[1]": {"test_system": "LU99A", "in_short": "(§1)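 Values are medians from duplicate plates. Each reflects relative viability, defined as the nuclei count of treated wells over that of vehicle wells. Lung cancer cell lines in 1536-well plates were pin-tool dosed one day after seeding with one drug alone or with a fixed anchor-drug dose plus five library-drug doses (not always all listed) in √10 steps, then fixed, stained and imaged at 4× after 5 days.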"}, "[2]": {"test_system": "NCI-H1437", "in_short": "as §1"}, "[3]": {"test_system": "NCI-H441", "in_short": "as §1"}, "[4]": {"test_system": "LK-2", "in_short": "as §1"}, "[5]": {"test_system": "ABC-1", "in_short": "as §1"}, "[6]": {"test_system": "EKVX", "in_short": "as §1"}, "[7]": {"test_system": "COR-L 105", "in_short": "as §1"}, "[8]": {"test_system": "NCI-H838", "in_short": "as §1"}, "[9]": {"test_system": "BEN", "in_short": "as §1"}, "[10]": {"test_system": "HARA", "in_short": "as §1"}, "[11]": {"test_system": "NCI-H1666", "in_short": "as §1"}, "[12]": {"test_system": "201T", "in_short": "as §1"}, "[13]": {"test_system": "NCI-H1650", "in_short": "as §1"}, "[14]": {"test_system": "PC-14", "in_short": "as §1"}, "[15]": {"test_system": "CAL-12T", "in_short": "as §1"}, "[16]": {"test_system": "NCI-H2009", "in_short": "as §1"}, "[17]": {"test_system": "SW 900", "in_short": "as §1"}, "[18]": {"test_system": "NCI-H661", "in_short": "as §1"}, "[19]": {"test_system": "COR-L23", "in_short": "as §1"}, "[20]": {"test_system": "NCI-H3122", "in_short": "as §1"}, "[21]": {"test_system": "NCI-H727", "in_short": "as §1"}, "[22]": {"test_system": "HCC-366", "in_short": "as §1"}, "[23]": {"test_system": "NCI-H2170", "in_short": "as §1"}}}
{"smiles": "C=C1C(=O)O[C@@H](CCCCCCCC)[C@@H]1C(=O)O", "note": "[C-75] + N=C(N)NC(=N)NCCc1ccccc1 [Phenformin] (partner 250 µM)", "values": [{"measurement": "relative viability", "setting": "[1]; first compound 0.08 µM", "result": 0.848}, {"measurement": "relative viability", "setting": "[1]; first compound 0.253 µM", "result": 0.863}, {"measurement": "relative viability", "setting": "[1]; first compound 0.8 µM", "result": 0.816}, {"measurement": "relative viability", "setting": "[1]; first compound 2.53 µM", "result": 0.749}, {"measurement": "relative viability", "setting": "[1]; first compound 8 µM", "result": 0.641}, {"measurement": "relative viability", "setting": "[2]; first compound 0.08 µM", "result": 0.322}, {"measurement": "relative viability", "setting": "[2]; first compound 0.253 µM", "result": 0.323}, {"measurement": "relative viability", "setting": "[2]; first compound 0.8 µM", "result": 0.302}, {"measurement": "relative viability", "setting": "[2]; first compound 2.53 µM", "result": 0.284}, {"measurement": "relative viability", "setting": "[2]; first compound 8 µM", "result": 0.296}, {"measurement": "relative viability", "setting": "[3]; first compound 0.08 µM", "result": 0.784}, {"measurement": "relative viability", "setting": "[3]; first compound 0.253 µM", "result": 0.725}, {"measurement": "relative viability", "setting": "[3]; first compound 0.8 µM", "result": 0.784}, {"measurement": "relative viability", "setting": "[3]; first compound 2.53 µM", "result": 0.672}, {"measurement": "relative viability", "setting": "[3]; first compound 8 µM", "result": 0.787}, {"measurement": "relative viability", "setting": "[4]; first compound 0.08 µM", "result": 0.519}, {"measurement": "relative viability", "setting": "[4]; first compound 0.253 µM", "result": 0.537}, {"measurement": "relative viability", "setting": "[4]; first compound 0.8 µM", "result": 0.484}, {"measurement": "relative viability", "setting": "[4]; first compound 2.53 µM", "result": 0.226}, {"measurement": "relative viability", "setting": "[4]; first compound 8 µM", "result": 0.273}, {"measurement": "relative viability", "setting": "[5]; first compound 0.08 µM", "result": 0.209}, {"measurement": "relative viability", "setting": "[5]; first compound 0.253 µM", "result": 0.289}, {"measurement": "relative viability", "setting": "[5]; first compound 0.8 µM", "result": 0.231}, {"measurement": "relative viability", "setting": "[5]; first compound 2.53 µM", "result": 0.19}, {"measurement": "relative viability", "setting": "[5]; first compound 8 µM", "result": 0.199}, {"measurement": "relative viability", "setting": "[6]; first compound 0.08 µM", "result": 0.213}, {"measurement": "relative viability", "setting": "[6]; first compound 0.253 µM", "result": 0.228}, {"measurement": "relative viability", "setting": "[6]; first compound 0.8 µM", "result": 0.232}, {"measurement": "relative viability", "setting": "[6]; first compound 8 µM", "result": 0.25}, {"measurement": "relative viability", "setting": "[7]; first compound 0.08 µM", "result": 0.507}, {"measurement": "relative viability", "setting": "[7]; first compound 0.253 µM", "result": 0.485}, {"measurement": "relative viability", "setting": "[7]; first compound 0.8 µM", "result": 0.547}, {"measurement": "relative viability", "setting": "[7]; first compound 2.53 µM", "result": 0.436}, {"measurement": "relative viability", "setting": "[7]; first compound 8 µM", "result": 0.436}, {"measurement": "relative viability", "setting": "[8]; first compound 0.08 µM", "result": 0.572}, {"measurement": "relative viability", "setting": "[8]; first compound 0.8 µM", "result": 0.515}, {"measurement": "relative viability", "setting": "[8]; first compound 2.53 µM", "result": 0.453}, {"measurement": "relative viability", "setting": "[8]; first compound 8 µM", "result": 0.49}, {"measurement": "relative viability", "setting": "[9]; first compound 0.08 µM", "result": 0.266}, {"measurement": "relative viability", "setting": "[9]; first compound 0.253 µM", "result": 0.274}, {"measurement": "relative viability", "setting": "[9]; first compound 0.8 µM", "result": 0.297}, {"measurement": "relative viability", "setting": "[9]; first compound 8 µM", "result": 0.258}, {"measurement": "relative viability", "setting": "[10]; first compound 0.08 µM", "result": 0.46}, {"measurement": "relative viability", "setting": "[10]; first compound 0.253 µM", "result": 0.487}, {"measurement": "relative viability", "setting": "[10]; first compound 0.8 µM", "result": 0.342}, {"measurement": "relative viability", "setting": "[10]; first compound 2.53 µM", "result": 0.306}, {"measurement": "relative viability", "setting": "[10]; first compound 8 µM", "result": 0.434}, {"measurement": "relative viability", "setting": "[11]; first compound 0.08 µM", "result": 0.586}, {"measurement": "relative viability", "setting": "[11]; first compound 0.253 µM", "result": 0.602}, {"measurement": "relative viability", "setting": "[11]; first compound 0.8 µM", "result": 0.56}, {"measurement": "relative viability", "setting": "[11]; first compound 2.53 µM", "result": 0.559}, {"measurement": "relative viability", "setting": "[11]; first compound 8 µM", "result": 0.51}, {"measurement": "relative viability", "setting": "[12]; first compound 0.08 µM", "result": 0.42}, {"measurement": "relative viability", "setting": "[12]; first compound 0.253 µM", "result": 0.484}, {"measurement": "relative viability", "setting": "[12]; first compound 0.8 µM", "result": 0.425}, {"measurement": "relative viability", "setting": "[12]; first compound 2.53 µM", "result": 0.43}, {"measurement": "relative viability", "setting": "[12]; first compound 8 µM", "result": 0.459}, {"measurement": "relative viability", "setting": "[13]; first compound 0.08 µM", "result": 0.47}, {"measurement": "relative viability", "setting": "[13]; first compound 0.253 µM", "result": 0.502}, {"measurement": "relative viability", "setting": "[13]; first compound 2.53 µM", "result": 0.448}, {"measurement": "relative viability", "setting": "[13]; first compound 8 µM", "result": 0.491}, {"measurement": "relative viability", "setting": "[14]; first compound 0.08 µM", "result": 0.469}, {"measurement": "relative viability", "setting": "[14]; first compound 0.253 µM", "result": 0.516}, {"measurement": "relative viability", "setting": "[14]; first compound 0.8 µM", "result": 0.479}, {"measurement": "relative viability", "setting": "[14]; first compound 2.53 µM", "result": 0.549}, {"measurement": "relative viability", "setting": "[14]; first compound 8 µM", "result": 0.526}, {"measurement": "relative viability", "setting": "[15]; first compound 0.08 µM", "result": 0.545}, {"measurement": "relative viability", "setting": "[15]; first compound 0.253 µM", "result": 0.746}, {"measurement": "relative viability", "setting": "[15]; first compound 0.8 µM", "result": 0.567}, {"measurement": "relative viability", "setting": "[15]; first compound 2.53 µM", "result": 0.556}, {"measurement": "relative viability", "setting": "[15]; first compound 8 µM", "result": 0.515}, {"measurement": "relative viability", "setting": "[16]; first compound 0.08 µM", "result": 0.487}, {"measurement": "relative viability", "setting": "[16]; first compound 0.253 µM", "result": 0.534}, {"measurement": "relative viability", "setting": "[16]; first compound 0.8 µM", "result": 0.448}, {"measurement": "relative viability", "setting": "[16]; first compound 2.53 µM", "result": 0.427}, {"measurement": "relative viability", "setting": "[16]; first compound 8 µM", "result": 0.422}, {"measurement": "relative viability", "setting": "[17]; first compound 0.08 µM", "result": 0.642}, {"measurement": "relative viability", "setting": "[17]; first compound 0.253 µM", "result": 0.58}, {"measurement": "relative viability", "setting": "[17]; first compound 0.8 µM", "result": 0.513}, {"measurement": "relative viability", "setting": "[17]; first compound 2.53 µM", "result": 0.535}, {"measurement": "relative viability", "setting": "[17]; first compound 8 µM", "result": 0.495}, {"measurement": "relative viability", "setting": "[18]; first compound 0.08 µM", "result": 0.313}, {"measurement": "relative viability", "setting": "[18]; first compound 0.253 µM", "result": 0.271}, {"measurement": "relative viability", "setting": "[18]; first compound 0.8 µM", "result": 0.296}, {"measurement": "relative viability", "setting": "[18]; first compound 2.53 µM", "result": 0.237}, {"measurement": "relative viability", "setting": "[18]; first compound 8 µM", "result": 0.288}, {"measurement": "relative viability", "setting": "[19]; first compound 0.08 µM", "result": 0.44}, {"measurement": "relative viability", "setting": "[19]; first compound 0.253 µM", "result": 0.386}, {"measurement": "relative viability", "setting": "[19]; first compound 0.8 µM", "result": 0.41}, {"measurement": "relative viability", "setting": "[19]; first compound 2.53 µM", "result": 0.42}, {"measurement": "relative viability", "setting": "[19]; first compound 8 µM", "result": 0.421}, {"measurement": "relative viability", "setting": "[20]; first compound 0.08 µM", "result": 0.405}, {"measurement": "relative viability", "setting": "[20]; first compound 0.253 µM", "result": 0.406}, {"measurement": "relative viability", "setting": "[20]; first compound 0.8 µM", "result": 0.384}, {"measurement": "relative viability", "setting": "[20]; first compound 8 µM", "result": 0.408}, {"measurement": "relative viability", "setting": "[21]; first compound 0.08 µM", "result": 0.62}, {"measurement": "relative viability", "setting": "[21]; first compound 0.253 µM", "result": 0.879}, {"measurement": "relative viability", "setting": "[21]; first compound 0.8 µM", "result": 0.537}, {"measurement": "relative viability", "setting": "[21]; first compound 8 µM", "result": 0.65}, {"measurement": "relative viability", "setting": "[22]; first compound 0.08 µM", "result": 0.586}, {"measurement": "relative viability", "setting": "[22]; first compound 0.253 µM", "result": 0.634}, {"measurement": "relative viability", "setting": "[22]; first compound 0.8 µM", "result": 0.61}, {"measurement": "relative viability", "setting": "[22]; first compound 8 µM", "result": 0.571}, {"measurement": "relative viability", "setting": "[23]; first compound 0.08 µM", "result": 0.469}, {"measurement": "relative viability", "setting": "[23]; first compound 0.253 µM", "result": 0.453}, {"measurement": "relative viability", "setting": "[23]; first compound 0.8 µM", "result": 0.419}, {"measurement": "relative viability", "setting": "[23]; first compound 2.53 µM", "result": 0.404}, {"measurement": "relative viability", "setting": "[23]; first compound 8 µM", "result": 0.481}]}
